Measurements taken from patent publication US20230150980A1, “COLLAGEN 1 TRANSLATION INHIBITORS AND METHODS OF USE THEREOF” (Anima Biotech Inc., priority 2020, published 2023).
Where a name gives a salt, the structure may show the parent alone.

System: collagen 1
Assay: WI-38 collagen 1 inhibition assay (anti-Collagen I immunofluorescence);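 note: minus sign means inactive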
Format: cell-based
Details: cellular EC50, WI-38 human lung fibroblasts, values are LogEC50 classes
Description: WI-38 cells (ATCC® CCL-75™) were maintained in MEM EAGLE (NEAA) W. GLUTAMIN (Biological Industries, Cat. 06-1040-15-1A) containing 10% fetal bovine serum (FBS) and 1% Penicillin-Streptomycin Solution. To synchronize the cells (cell cycle synchronization) prior to induction of collagen synthesis, the cells were starved using DMEM-low glucose supplemented with 0.25% FBS for two hours and then without FBS for 24 hours. To induce collagen synthesis, the cells were treated with a collagen induction cocktail for the indicated time. Compounds were added with induction.
Cells in 96-well or 384-well plates were fixed for 20 min in 4% paraformaldehyde (PFA, ENCO, Cat. sc-281692). Following two washes with 1×PBS, cells were treated with hydrogen peroxide (Acros, Cat: 7722-84-1) for 10 minutes and then washed twice with 1×PBS. Cells were then incubated over-night at 4° C. with Anti-Collagen I (Sigma-Aldrich, Cat: C 2456) antibody and washed three times with 1×PBS. Cell were then incubated with a suitable secondary fluorescently-tagged antibody and nuclei stained with DAPI, for 1 hour, and then washed 3 times with 1×PBS.
Cell images were taken with Operetta (Perkin Elmer, USA), a wide-field fluorescence microscope at 20× magnification. After acquisition, the images were transferred to Columbus software (Perkin-Elmer) for image analysis. In Columbus, cells were identified by their nucleus, using the “Find Nuceli” module and cytoplasm was detected based on the secondary antibody channel. Subsequently, the fluorescent signal was enumerated in the identified cell region. Data was exported to a data analysis and visualization software, Tibco Spotfire, USA.

Compound | COL1 Efficacy (LogEC50)
c1ccc2[nH]c(CN3CCN(c4cncnc4)CC3)cc2c1 [compound 278, 2-[(4-pyrimidin-5-ylpiperazin-1-yl)methyl]-1H-indole formate] | −
c1ccc2[nH]c(CN3CCN(c4ccnnc4)CC3)cc2c1 [compound 279, 2-[(4-pyridazin-4-ylpiperazin-1-yl)methyl]-1H-indole formate] | −
N#Cc1c(CN2CCN(c3ccncc3)CC2)[nH]c2ccccc12 [compound 280, 2-[[4-(4-pyridyl)piperazin-1-yl]methyl]-1H-indole-3-carbonitrile] | −
c1ccc2oc(CN3CCN(c4ccncn4)CC3)nc2c1 [compound 281, 2-[(4-pyrimidin-4-ylpiperazin-1-yl)methyl]-1,3-benzoxazole hemiformate] | + (+: >−5)
c1ccc2oc(CN3CCN(c4ccncc4)CC3)nc2c1 [compound 282, 2-[[4-(4-pyridyl)piperazin-1-yl]methyl]-1,3-benzoxazole formate] | + (+: >−5)
c1ccn2nc(CN3CCN(c4ccncc4)CC3)cc2c1 [compound 283, 2-((4-(pyridin-4-yl)piperazin-1-yl)methyl)pyrazolo[1,5-a]pyridine 2,2,2-trifluoroacetate] | −
c1cnc2cc(CN3CCN(c4ccncc4)CC3)[nH]c2c1 [compound 284, 2-[[4-(4-pyridyl)piperazin-1-yl]methyl]-1H-pyrrolo[3,2-b]pyridine] | −
c1ccc2[nH]c(CN3C[C@@H]4CN(c5ccncc5)C[C@@H]4C3)cc2c1 [compound 285, 2-[[(3aS,6aR)-5-(4-pyridyl)-1,3,3a,4,6,6a-hexahydropyrrolo[3,4-c]pyrrol-2-yl]methyl]-1H-indole] | −
COCCOCc1cncnc1N1CCN(Cc2cc3ccccc3[nH]2)CC1 [compound 287, 2-((4-(5-((2-methoxyethoxy)methyl)pyrimidin-4-yl)piperazin-1-yl)methyl)-1H-indole] | −
Cn1cc(N2CCN(Cc3cc4ccccc4[nH]3)CC2)nn1 [compound 288, 2-((4-(1-methyl-1H-1,2,3-triazol-4-yl)piperazin-1-yl)methyl)-1H-indole] | ++ (++: −5 to −6)
CCc1cncnc1N1CCN(Cc2nc3ccc(COCCOC)cc3[nH]2)CC1 [compound 289, 2-((4-(5-ethylpyrimidin-4-yl)piperazin-1-yl)methyl)-6-((2-methoxyethoxy)methyl)-1H-benzo[d]imidazole] | +++ (+++: <−6)
CCc1cncnc1N1CCN(Cc2nc3ccc(OCCOC)cc3[nH]2)CC1 [compound 290, 2-((4-(5-ethylpyrimidin-4-yl)piperazin-1-yl)methyl)-6-(2-methoxyethoxy)-1H-benzo[d]imidazole] | ++ (++: −5 to −6)
CCc1cncnc1N1CCN(Cc2cc3ccc(COCCOC)cc3[nH]2)CC1 [compound 291, 2-((4-(5-ethylpyrimidin-4-yl)piperazin-1-yl)methyl)-6-((2-methoxyethoxy)methyl)-1H-indole] | +++ (+++: <−6)
CCc1cncnc1N1CCN(Cc2cc3ccc(OCCOC)cc3[nH]2)CC1 [compound 292, 2-((4-(5-ethylpyrimidin-4-yl)piperazin-1-yl)methyl)-6-(2-methoxyethoxy)-1H-indole] | ++ (++: −5 to −6)
Cc1ncnc(N2CCN(Cc3nc4c(F)cccc4o3)CC2)c1C [compound 293, 2-((4-(5,6-dimethylpyrimidin-4-yl)piperazin-1-yl)methyl)-4-fluorobenzo[d]oxazole] | ++ (++: −5 to −6)
Cc1ncnc(N2CCN(Cc3nc4c(C(F)(F)F)cccc4o3)CC2)c1C [compound 295, 2-((4-(5,6-dimethylpyrimidin-4-yl)piperazin-1-yl)methyl)-4-(trifluoromethyl)benzo[d]oxazole] | +++ (+++: <−6)
Cc1ncnc(N2CCN(Cc3nc4cc(F)ccc4o3)CC2)c1C [compound 297, 2-((4-(5,6-dimethylpyrimidin-4-yl)piperazin-1-yl)methyl)-5-fluorobenzo[d]oxazole] | ++ (++: −5 to −6)
Cc1ncnc(N2CCN(Cc3nc4cc(C(F)(F)F)ccc4o3)CC2)c1C [compound 299, 2-((4-(5,6-dimethylpyrimidin-4-yl)piperazin-1-yl)methyl)-5-(trifluoromethyl)benzo[d]oxazole] | +++ (+++: <−6)
Cc1ncnc(N2CCN(Cc3nc4ccc(F)cc4o3)CC2)c1C [compound 301, 2-((4-(5,6-dimethylpyrimidin-4-yl)piperazin-1-yl)methyl)-6-fluorobenzo[d]oxazole] | +++ (+++: <−6)
Cc1ncnc(N2CCN(Cc3nc4ccc(Cl)cc4o3)CC2)c1C [compound 302, 6-chloro-2-((4-(5,6-dimethylpyrimidin-4-yl)piperazin-1-yl)methyl)benzo[d]oxazole] | +++ (+++: <−6)
Cc1ncnc(N2CCN(Cc3nc4ccc(C(F)(F)F)cc4o3)CC2)c1C [compound 303, 2-((4-(5,6-dimethylpyrimidin-4-yl)piperazin-1-yl)methyl)-6-(trifluoromethyl)benzo[d]oxazole] | +++ (+++: <−6)
Cc1ncnc(N2CCN(Cc3nc4ccc(C(F)F)cc4o3)CC2)c1C [compound 304, 6-(difluoromethyl)-2-((4-(5,6-dimethylpyrimidin-4-yl)piperazin-1-yl)methyl)benzo[d]oxazole] | +++ (+++: <−6)
Cc1ncnc(N2CCN(Cc3nc4cccc(F)c4o3)CC2)c1C [compound 305, 2-((4-(5,6-dimethylpyrimidin-4-yl)piperazin-1-yl)methyl)-7-fluorobenzo[d]oxazole] | ++ (++: −5 to −6)
Cc1ncnc(N2CCN(Cc3nc4cccc(C(F)(F)F)c4o3)CC2)c1C [compound 307, 2-((4-(5,6-dimethylpyrimidin-4-yl)piperazin-1-yl)methyl)-7-(trifluoromethyl)benzo[d]oxazole] | ++ (++: −5 to −6)
Cc1ncnc(N2CCN(Cc3nc4ccccc4o3)CC2)c1F [compound 309, 2-((4-(5-fluoro-6-methylpyrimidin-4-yl)piperazin-1-yl)methyl)benzo[d]oxazole] | ++ (++: −5 to −6)
Cc1ncnc(N2CCN(Cc3nc4ccccc4o3)CC2)c1Cl [compound 310, 2-((4-(5-chloro-6-methylpyrimidin-4-yl)piperazin-1-yl)methyl)benzo[d]oxazole] | ++ (++: −5 to −6)
Cc1ncnc(N2CCN(Cc3nc4ccccc4o3)CC2)c1C(F)(F)F [compound 311, 2-((4-(6-methyl-5-(trifluoromethyl)pyrimidin-4-yl)piperazin-1-yl)methyl)benzo[d]oxazole] | + (+: >−5)
Fc1cncnc1N1CCN(Cc2nc3ccccc3o2)CC1 [compound 313] | + (+: >−5)
Clc1cncnc1N1CCN(Cc2nc3ccccc3o2)CC1 [compound 314, 2-((4-(5-chloropyrimidin-4-yl)piperazin-1-yl)methyl)benzo[d]oxazole] | ++ (++: −5 to −6)
FC(F)(F)c1cncnc1N1CCN(Cc2nc3ccccc3o2)CC1 [compound 315, 2-((4-(5-(trifluoromethyl)pyrimidin-4-yl)piperazin-1-yl)methyl)benzo[d]oxazole] | + (+: >−5)
